From patent publication US9296741B2, “Bromodomain inhibitors” (priority 2012, dated 2016)
Like-named read-outs stand apart in the source and are kept apart here.

Columns and labels:
[1] = target: human BRD4 first bromodomain (BDI_K57-E168) (Homo sapiens (Human), UniProt O60885); test: TR-FRET bromodomain binding assay, BRD4 first bromodomain
[2] = system: breast cancer cell line MX-1; test: MX-1 cell line proliferation assay; type: cell-based, human; details: MX-1 cells, 3-day proliferation, Cell Titer Glo, read-out: Cellular proliferation: EC50
[3] = Rat liver microsome stability assay; type: in vitro ADME; details: for half-life at 0.5 μM: 0.25 mg/mL microsomal protein, read-out: Stability in rat liver microsomes (t1/2 in minutes)
[4] = Human liver microsome stability assay; type: in vitro ADME; details: human, microsomes, pH 7.4; for half-life at 0.5 μM: both sexes
[5] = target: human BRD4 second bromodomain (BDII_E352-M457) (Homo sapiens (Human), UniProt O60885); test: TR-FRET bromodomain binding assay, BRD4 second bromodomain
[6] = rat liver microsomes (male Sprague-Dawley), 0.5 μM test compound, pH 7.4, 37° C.

| Compound | Ki [1] | EC50 ([2]; Homo sapiens, MX1, 72 h) | Stability in rat liver microsomes (t1/2 in minutes) ([3]; rat liver microsomes (male Sprague-Dawley), 0.5 μM test compound, […] microsomal protein, pH 7.4, 37° C.) | half-life at 0.5 μM [4] | Ki [5] | half-life at 0.5 μM [3, 6] | EC50 [2] | Stability in rat liver microsomes (t1/2 in minutes) ([3]; rat, microsomes, pH 7.4) | Stability in human liver microsomes (t1/2 in minutes) [4] |
| --- | --- | --- | --- | --- | --- | --- | --- | --- | --- |
| Cn1cc(-c2ccccc2Oc2ccccc2)c2cc[nH]c2c1=O [Example 1, 6-methyl-4-(2-phenoxyphenyl)-1,6-dihydro-7H-pyrrolo[2,3-c]pyridin-7-one] | 136 nM | 137 nM | 1 min | 9 min | 41 nM | – | – | – | – |
| CCS(=O)(=O)Nc1ccc(OC2CCOC2)c(-c2cn(C)c(=O)c3[nH]ccc23)c1 (stereo not shown) [Example 66, N-[3-(6-methyl-7-oxo-6,7-dihydro-1H-pyrrolo[2,3-c]pyridin-4-yl)-4-(tetrahydrofuran-3-yloxy)phenyl]ethanesulfonamide] | 0.74 nM | 33.2 nM | – | > 120 min | 3.4 nM | > 120 min | – | – | – |
| Cn1cc(-c2ccccc2Oc2ccccc2)c2cc(-c3ccccc3)[nH]c2c1=O [Example 88, 6-methyl-4-(2-phenoxyphenyl)-2-phenyl-1,6-dihydro-7H-pyrrolo[2,3-c]pyridin-7-one] | 635 nM | > 3000 nM | – | 23 min | 236 nM | 12 min | – | – | – |
| CCOc1ccc(S(C)(=O)=O)cc1-c1cn(C)c(=O)c2[nH]ccc12 [Example 259, 4-[2-ethoxy-5-(methylsulfonyl)phenyl]-6-methyl-1,6-dihydro-7H-pyrrolo[2,3-c]pyridin-7-one] | 24.2 nM | 123 nM | – | 117 min | 20.3 nM | 87 min | – | – | – |
| Cc1cc(OCC2CC2)c(-c2cn(C)c(=O)c3[nH]ccc23)cc1NS(C)(=O)=O [Example 263, N-[4-(cyclopropylmethoxy)-2-methyl-5-(6-methyl-7-oxo-6,7-dihydro-1H-pyrrolo[2,3-c]pyridin-4-yl)phenyl]methanesulfonamide] | 8.8 nM | 76.9 nM | – | 70 min | 16.3 nM | 72 min | – | – | – |
| CCS(=O)(=O)c1ccc(OC2CCSCC2)c(-c2cn(C)c(=O)c3[nH]ccc23)c1 [Example 264, 4-[5-(ethylsulfonyl)-2-(tetrahydro-2H-thiopyran-4-yloxy)phenyl]-6-methyl-1,6-dihydro-7H-pyrrolo[2,3-c]pyridin-7-one] | 1.2 nM | 17.8 nM | – | 14 min | 1.2 nM | 6 min | – | – | – |
| CCS(=O)(=O)c1ccc(OC2CCS(=O)(=O)CC2)c(-c2cn(C)c(=O)c3[nH]ccc23)c1 [Example 265, 4-{2-[(1,1-dioxidotetrahydro-2H-thiopyran-4-yl)oxy]-5-(ethylsulfonyl)phenyl}-6-methyl-1,6-dihydro-7H-pyrrolo[2,3-c]pyridin-7-one] | 9 nM | > 3000 nM | – | > 120 min | 35.6 nM | > 120 min | – | – | – |
| CN(C)S(=O)(=O)c1cnc(Oc2ccc(F)cc2F)c(-c2cn(C)c(=O)c3[nH]ccc23)c1 [Example 266, 6-(2,4-difluorophenoxy)-N,N-dimethyl-5-(6-methyl-7-oxo-6,7-dihydro-1H-pyrrolo[2,3-c]pyridin-4-yl)pyridine-3-sulfonamide] | 21.5 nM | 56.4 nM | – | 8 min | 7.8 nM | 20 min | – | – | – |
| CCS(=O)(=O)c1ccc(O[C@H]2CC[C@@](C)(OC)CC2)c(-c2cn(C)c(=O)c3[nH]ccc23)c1 [Example 268, 4-(5-(ethylsulfonyl)-2-(cis-4-methoxy-4-methylcyclohexyloxy)phenyl)-6-methyl-1H-pyrrolo[2,3-c]pyridin-7(6H)-one] | 0.76 nM | – | – | – | 0.57 nM | – | 6.2 nM | 26 min | 10 min |
| CCN(CC)S(=O)(=O)c1cnc(OCC2CC2)c(-c2cn(C)c(=O)c3[nH]ccc23)c1 [Example 272, 6-(cyclopropylmethoxy)-N,N-diethyl-5-(6-methyl-7-oxo-6,7-dihydro-1H-pyrrolo[2,3-c]pyridin-4-yl)pyridine-3-sulfonamide] | 10.2 nM | 112 nM | – | 2 min | 11.6 nM | 4 min | – | – | – |
| Cn1cc(-c2cc(S(C)(=O)=O)ccc2OC2Cc3ccccc3C2)c2cc[nH]c2c1=O [Example 277, 4-[2-(2,3-dihydro-1H-inden-2-yloxy)-5-(methylsulfonyl)phenyl]-6-methyl-1,6-dihydro-7H-pyrrolo[2,3-c]pyridin-7-one] | 6.3 nM | 21.1 nM | – | 4 min | 14.3 nM | 5 min | – | – | – |
| Cn1cc(-c2cc(S(C)(=O)=O)ccc2Oc2ccc(F)cc2F)c2cc(COc3cccnc3)[nH]c2c1=O [Example 289, 4-[2-(2,4-difluorophenoxy)-5-(methylsulfonyl)phenyl]-6-methyl-2-[(pyridin-3-yloxy)methyl]-1,6-dihydro-7H-pyrrolo[2,3-c]pyridin-7-one] | 12.4 nM | > 3000 nM | – | – | 310 nM | – | – | – | – |
| CCS(=O)(=O)Cc1ccc(Oc2ccc(F)cc2F)c(-c2cn(C)c(=O)c3[nH]ccc23)c1 [Example 297, 4-{2-(2,4-difluorophenoxy)-5-[(ethylsulfonyl)methyl]phenyl}-6-methyl-1,6-dihydro-7H-pyrrolo[2,3-c]pyridin-7-one] | 14.2 nM | 18.6 nM | – | 83 min | 5.2 nM | 43 min | – | – | – |
| Cn1cc(-c2cc(S(=O)(=O)N3CCCC3)ccc2Oc2ccc(F)cc2F)c2cc[nH]c2c1=O [Example 299, 4-[2-(2,4-difluorophenoxy)-5-(pyrrolidin-1-ylsulfonyl)phenyl]-6-methyl-1,6-dihydro-7H-pyrrolo[2,3-c]pyridin-7-one] | 80.1 nM | 36 nM | – | 1 min | 5 nM | 2 min | – | – | – |
| Cn1cc(-c2cc(S(=O)(=O)NCc3cccnc3)ccc2OCC2CC2)c2cc[nH]c2c1=O [Example 333, 4-(cyclopropylmethoxy)-3-(6-methyl-7-oxo-6,7-dihydro-1H-pyrrolo[2,3-c]pyridin-4-yl)-N-(pyridin-3-ylmethyl)benzenesulfonamide] | 36.9 nM | 74 nM | – | 0.8 min | 32.7 nM | 3 min | – | – | – |
| CCS(=O)(=O)N(CCOC)c1ccc(Oc2ccc(F)cc2F)c(-c2cn(C)c(=O)c3[nH]ccc23)c1 [Example 341, N-[4-(2,4-difluorophenoxy)-3-(6-methyl-7-oxo-6,7-dihydro-1H-pyrrolo[2,3-c]pyridin-4-yl)phenyl]-N-(2-methoxyethyl)ethanesulfonamide] | 295 nM | 622 nM | – | – | 81.7 nM | – | – | – | – |
| CCS(=O)(=O)N(CCN1CCCC1=O)c1ccc(Oc2ccc(F)cc2F)c(-c2cn(C)c(=O)c3[nH]ccc23)c1 [Example 344, N-[4-(2,4-difluorophenoxy)-3-(6-methyl-7-oxo-6,7-dihydro-1H-pyrrolo[2,3-c]pyridin-4-yl)phenyl]-N-[2-(2-oxopyrrolidin-1-yl)ethyl]ethanesulfonamide] | 430 nM | 636 nM | – | – | 136 nM | – | – | – | – |
